# ChEMBL document CHEMBL1201862, “PubChem BioAssay data set” (2004)
# Active and inactive are the calls of the source.
# Columns and labels:
# [1] = target: DNA dC->dU-editing enzyme APOBEC-3A (Homo sapiens, UniProt P31941); assay: A3A deaminase inhibition for selectivity – biochemical, dose response (AID 504722); assay type: functional
# [2] = target: DNA dC->dU-editing enzyme APOBEC-3G (Homo sapiens, UniProt Q9HC16); assay: Dose Response confirmation of small molecule APOBEC3G DNA Deaminase Inhibitors via a fluorescence-based single-stranded DNA deaminase assay. [Related pubchem assays (depositor defined):AID493012, AID493028]; assay type: functional
# Large T antigen = Large T antigen (Simian virus 40, UniProt P03070); assay type: functional, Betapolyomavirus macacae;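 note: Confirmatory-stage PubChem screen for compounds that inhibit SV40 T antigen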
# [3] = target: T1, Mannose-6-phosphate isomerase (Homo sapiens, UniProt P34949); assay: phosphomannose isomerase inhibition – biochemical, fluorescence intensity, confirmation (AID 1535)
# T1 sequence (P34949 whole entry): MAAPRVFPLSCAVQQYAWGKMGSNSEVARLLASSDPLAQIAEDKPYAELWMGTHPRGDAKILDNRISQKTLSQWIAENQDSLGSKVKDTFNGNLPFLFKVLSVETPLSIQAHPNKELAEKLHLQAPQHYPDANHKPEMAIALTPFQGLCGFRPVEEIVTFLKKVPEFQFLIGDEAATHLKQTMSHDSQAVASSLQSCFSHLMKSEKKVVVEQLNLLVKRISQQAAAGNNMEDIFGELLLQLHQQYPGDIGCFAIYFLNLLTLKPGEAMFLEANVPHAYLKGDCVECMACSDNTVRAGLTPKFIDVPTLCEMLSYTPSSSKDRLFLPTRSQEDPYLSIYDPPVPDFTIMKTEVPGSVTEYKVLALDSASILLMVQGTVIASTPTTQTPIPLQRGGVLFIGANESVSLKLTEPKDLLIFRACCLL
# [4] = target: Glucose-6-phosphate 1-dehydrogenase (Homo sapiens, UniProt P11413); assay: inhibition of Homo sapiens G6PD, dose series – biochemical, fluorescence, selectivity assay for P. falciparum G6PD inhibitor project, dose response (AID 504792); assay type: functional
# Phosphomannomutase 2 = target: T2, Phosphomannomutase 2 (Homo sapiens, UniProt O15305); assay: Counter screen SAR assay for PMM2 inhibitors via a fluorescence intensity assay. [Related pubchem assays (depositor defined):AID1545, AID1574]
# T2 sequence (O15305 whole entry): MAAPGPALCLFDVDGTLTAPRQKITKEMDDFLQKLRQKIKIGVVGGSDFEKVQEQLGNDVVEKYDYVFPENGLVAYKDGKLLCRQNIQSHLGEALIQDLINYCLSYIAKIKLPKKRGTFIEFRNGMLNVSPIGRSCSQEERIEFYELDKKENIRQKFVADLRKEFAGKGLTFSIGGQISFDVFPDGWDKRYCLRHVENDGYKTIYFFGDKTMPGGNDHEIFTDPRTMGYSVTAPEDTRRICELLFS
# [5] = target: Phosphoethanolamine/phosphocholine phosphatase (Homo sapiens, UniProt Q8TCT1); assay: SAR assay for compounds that inhibit PHOSPHO1. [Related pubchem assays (depositor defined):AID1545, AID1565, AID1574]
# [6] = target: Eukaryotic translation initiation factor 4E (Mus musculus, UniProt P63073); assay: blockers of eIF4G binding by eIF4E – biochemical, TR-FRET, dose response (AID 855); assay type: functional;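 note: potency for disrupting eIF4E binding to eIF4GI seen as loss of FRET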
# [7] = target: T3, Carboxy-terminal domain RNA polymerase II polypeptide A small phosphatase 1 (Homo sapiens, UniProt Q9GZU7); assay: CTDSP1 inhibitors, concentration-response, biochemical, absorbance readout, ultra-high-throughput screen actives (AID 540297); assay type: functional
# T3 sequence (Q9GZU7 whole entry): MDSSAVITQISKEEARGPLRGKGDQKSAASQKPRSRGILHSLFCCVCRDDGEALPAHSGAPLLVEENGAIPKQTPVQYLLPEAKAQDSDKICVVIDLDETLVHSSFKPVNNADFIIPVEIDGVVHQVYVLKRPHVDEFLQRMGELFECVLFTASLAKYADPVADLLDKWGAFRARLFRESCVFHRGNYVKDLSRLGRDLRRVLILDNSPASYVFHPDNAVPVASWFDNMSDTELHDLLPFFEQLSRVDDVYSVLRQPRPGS
# Protein Rev = Protein Rev (Human immunodeficiency virus type 1 group M subtype B (isolate HXB2)(HIV-1), UniProt P04618); assay: blockers of HIV Rev/RRE RNA complex – biochemical, fluorescence polarization, HIV-1, dose response (AID 434976); design: species or system Human immunodeficiency virus 1
# [8] = target: Female germline-specific tumor suppressor gld-1 (Caenorhabditis elegans, UniProt Q17339); assay: blockers of GLD-1/TGE RNA complex formation – biochemical, fluorescence polarization, C. elegans, dose response (AID 2802);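 note: fluorescence polarization of labeled TGE RNA bound by purified gld-1 protein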
# [9] = target: T4, RNA-binding protein pos-1 (Caenorhabditis elegans, UniProt G5EF15); assay: disruptors of C. elegans POS-1 RNA interaction – biochemical, fluorescence polarization, dose response (AID 1964);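 note: purified POS-1 fused to maltose binding protein made in E. coli; potency of compounds blocking POS-1 binding to fluorescent RNA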
# T4 sequence (G5EF15 whole entry): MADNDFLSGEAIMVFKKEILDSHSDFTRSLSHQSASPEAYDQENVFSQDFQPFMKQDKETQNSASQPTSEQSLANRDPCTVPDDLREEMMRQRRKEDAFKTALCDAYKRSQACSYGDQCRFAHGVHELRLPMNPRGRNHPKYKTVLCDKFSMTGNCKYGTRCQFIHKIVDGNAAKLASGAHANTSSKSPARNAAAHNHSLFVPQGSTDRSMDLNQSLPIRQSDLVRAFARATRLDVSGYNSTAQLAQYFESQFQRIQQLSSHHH
# [10] = target: T5, Zinc finger protein mex-5 (Caenorhabditis elegans, UniProt Q9XUB2); assay: potency of MEX-5 RNA-binding blockers – biochemical, C. elegans, fluorescence polarization, dose response (AID 1960)
# T5 sequence (Q9XUB2 whole entry): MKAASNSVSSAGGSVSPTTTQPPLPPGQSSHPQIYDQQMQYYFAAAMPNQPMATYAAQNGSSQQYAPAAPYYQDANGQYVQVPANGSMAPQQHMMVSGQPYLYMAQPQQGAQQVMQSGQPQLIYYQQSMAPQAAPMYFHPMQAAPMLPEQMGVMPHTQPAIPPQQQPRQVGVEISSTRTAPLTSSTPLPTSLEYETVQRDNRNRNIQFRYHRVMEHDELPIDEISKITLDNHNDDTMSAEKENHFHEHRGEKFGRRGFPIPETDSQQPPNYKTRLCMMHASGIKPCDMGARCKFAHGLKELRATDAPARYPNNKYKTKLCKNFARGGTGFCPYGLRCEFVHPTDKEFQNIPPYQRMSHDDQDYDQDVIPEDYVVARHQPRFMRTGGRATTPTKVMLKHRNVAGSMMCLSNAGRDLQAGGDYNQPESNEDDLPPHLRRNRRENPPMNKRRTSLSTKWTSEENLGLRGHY
# [11] = target: T6, Polyadenylate-binding protein 1 (Homo sapiens, UniProt P11940); assay: MLLE binding blockers, Cy5 peptide tracer – biochemical, fluorescence polarization, Cy5-PAM2 peptide, secondary, miRNA deadenylation inhibitor project, dose response (AID 602260); assay type: functional; settings: read-out: IC50_Mean
# [12] = target: T6, Polyadenylate-binding protein 1; assay: MLLE domain peptide-binding blockers, IC50 – biochemical, fluorescence polarization, FITC-PAM2 peptide, dose response (AID 602259); assay type: functional; settings: read-out: IC50_Mean
# [13] = target: G-protein coupled receptor 55 (Homo sapiens, UniProt Q9Y2T6); assay: inhibition of LPI-stimulated GPR55 beta-arrestin translocation – imaging, U2OS, beta-arrestin-GFP, LPI agonist, primary screen (AID 2013); assay type: functional;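 note: antagonist potency measured as reduced agonist-driven arrestin aggregation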
# [14] = microbe, parasite or virus in culture; assay type: functional; settings: Mycobacterium tuberculosis
# [15] = THP-1 cell cytotoxicity, dose response, cytotoxicity control for non-replicating M. tuberculosis project (AID 489025); assay type: functional
# [16] = HepG2 cell cytotoxicity, dose response, cytotoxicity control for non-replicating M. tuberculosis project (AID 489018); assay type: functional; settings: Mycobacterium tuberculosis
# [17] = Vero E6 cell cytotoxicity, dose response, cytotoxicity control for non-replicating M. tuberculosis project, secondary assay (AID 492998); assay type: functional, VeroE6; settings: Vero C1008
# Nonstructural protein 1 = Nonstructural protein 1 (Influenza A virus, UniProt Q194T2); assay type: functional, Influenza A virus (A/California/07/2009(H1N1))
# cells = assay type: functional
# [18] = bead-based luminescence quenchers, dual-tagged ARNT – biochemical, AlphaScreen, cherry-pick, artefact control for ARNT-TACC3 interaction inhibitor project, dose response (AID 651705); assay type: functional;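 note: AlphaScreen bead proximity signal that flags compounds interfering with the detection technology; potency reflects signal decrease which marks the compound as an assay artifact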
# T6 sequence (P11940 whole entry, the tested form may be a part): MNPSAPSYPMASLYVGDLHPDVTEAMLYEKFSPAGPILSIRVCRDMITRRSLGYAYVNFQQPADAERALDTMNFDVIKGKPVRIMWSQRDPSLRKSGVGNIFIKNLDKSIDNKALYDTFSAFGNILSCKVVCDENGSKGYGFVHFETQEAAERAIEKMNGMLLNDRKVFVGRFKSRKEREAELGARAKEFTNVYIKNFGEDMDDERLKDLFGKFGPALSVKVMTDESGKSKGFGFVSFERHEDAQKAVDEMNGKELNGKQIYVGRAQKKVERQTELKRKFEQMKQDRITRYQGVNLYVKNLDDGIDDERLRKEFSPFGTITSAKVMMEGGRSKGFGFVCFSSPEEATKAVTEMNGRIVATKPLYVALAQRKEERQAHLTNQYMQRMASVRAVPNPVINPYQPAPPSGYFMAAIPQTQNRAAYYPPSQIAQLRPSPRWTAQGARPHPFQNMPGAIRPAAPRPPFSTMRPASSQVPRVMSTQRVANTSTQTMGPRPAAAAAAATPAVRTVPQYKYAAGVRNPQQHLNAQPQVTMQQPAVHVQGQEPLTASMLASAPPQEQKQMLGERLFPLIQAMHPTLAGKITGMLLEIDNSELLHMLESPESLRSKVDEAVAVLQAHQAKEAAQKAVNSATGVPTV
# Nonstructural protein 1, sequence (Q194T2 whole entry): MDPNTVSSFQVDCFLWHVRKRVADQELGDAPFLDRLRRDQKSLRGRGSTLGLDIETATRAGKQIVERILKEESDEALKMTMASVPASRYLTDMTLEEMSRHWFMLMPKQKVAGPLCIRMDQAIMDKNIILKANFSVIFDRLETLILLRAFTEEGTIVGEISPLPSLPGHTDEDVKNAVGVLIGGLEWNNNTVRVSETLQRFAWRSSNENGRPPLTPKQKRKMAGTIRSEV
# DNA dC->dU-editing enzyme APOBEC-3G, sequence (Q9HC16 whole entry): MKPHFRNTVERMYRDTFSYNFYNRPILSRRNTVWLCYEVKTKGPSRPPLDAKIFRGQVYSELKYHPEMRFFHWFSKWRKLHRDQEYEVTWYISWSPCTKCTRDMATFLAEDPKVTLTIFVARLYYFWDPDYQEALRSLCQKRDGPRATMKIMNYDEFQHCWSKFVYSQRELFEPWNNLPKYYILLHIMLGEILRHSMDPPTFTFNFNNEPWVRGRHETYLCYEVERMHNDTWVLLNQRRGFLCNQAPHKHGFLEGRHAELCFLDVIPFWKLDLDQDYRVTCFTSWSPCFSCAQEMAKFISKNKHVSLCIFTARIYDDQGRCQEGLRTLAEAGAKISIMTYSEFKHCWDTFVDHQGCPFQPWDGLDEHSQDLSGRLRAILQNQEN
# G-protein coupled receptor 55, sequence (Q9Y2T6 whole entry): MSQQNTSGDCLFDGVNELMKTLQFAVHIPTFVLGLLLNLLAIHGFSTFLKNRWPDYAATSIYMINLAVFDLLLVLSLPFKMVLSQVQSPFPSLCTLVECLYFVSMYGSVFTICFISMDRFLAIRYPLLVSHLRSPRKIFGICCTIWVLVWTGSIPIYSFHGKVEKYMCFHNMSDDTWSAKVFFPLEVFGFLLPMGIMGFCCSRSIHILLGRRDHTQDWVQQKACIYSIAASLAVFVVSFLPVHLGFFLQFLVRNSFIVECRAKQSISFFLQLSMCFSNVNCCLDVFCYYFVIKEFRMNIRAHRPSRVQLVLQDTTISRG
# Phosphoethanolamine/phosphocholine phosphatase, sequence (Q8TCT1 whole entry): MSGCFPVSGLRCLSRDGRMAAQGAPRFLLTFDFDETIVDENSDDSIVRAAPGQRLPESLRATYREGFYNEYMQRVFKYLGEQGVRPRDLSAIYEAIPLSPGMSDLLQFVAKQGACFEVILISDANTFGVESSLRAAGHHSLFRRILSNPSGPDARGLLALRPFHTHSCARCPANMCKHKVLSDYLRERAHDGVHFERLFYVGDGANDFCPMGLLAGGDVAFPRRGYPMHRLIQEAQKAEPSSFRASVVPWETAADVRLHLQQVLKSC
# Female germline-specific tumor suppressor gld-1, sequence (Q17339 whole entry, the tested form may be a part): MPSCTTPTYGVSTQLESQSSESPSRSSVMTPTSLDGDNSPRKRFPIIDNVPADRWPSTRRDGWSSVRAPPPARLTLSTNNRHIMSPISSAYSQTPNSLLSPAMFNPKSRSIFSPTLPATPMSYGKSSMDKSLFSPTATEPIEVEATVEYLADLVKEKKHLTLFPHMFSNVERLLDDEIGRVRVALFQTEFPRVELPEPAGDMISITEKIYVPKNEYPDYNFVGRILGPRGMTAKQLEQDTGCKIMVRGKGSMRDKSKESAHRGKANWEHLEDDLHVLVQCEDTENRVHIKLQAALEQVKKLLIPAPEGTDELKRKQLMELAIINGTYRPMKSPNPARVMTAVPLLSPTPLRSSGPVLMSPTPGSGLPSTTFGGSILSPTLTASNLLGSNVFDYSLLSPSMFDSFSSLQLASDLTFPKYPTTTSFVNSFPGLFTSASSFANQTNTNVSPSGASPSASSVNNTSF
# Eukaryotic translation initiation factor 4E, sequence (P63073 whole entry, the tested form may be a part): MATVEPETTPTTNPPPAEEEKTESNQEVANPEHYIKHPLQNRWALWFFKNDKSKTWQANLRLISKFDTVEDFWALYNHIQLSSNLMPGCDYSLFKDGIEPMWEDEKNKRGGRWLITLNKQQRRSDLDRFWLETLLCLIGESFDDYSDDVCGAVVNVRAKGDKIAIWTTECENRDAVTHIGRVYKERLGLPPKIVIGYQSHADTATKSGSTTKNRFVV
# Glucose-6-phosphate 1-dehydrogenase, sequence (P11413 whole entry): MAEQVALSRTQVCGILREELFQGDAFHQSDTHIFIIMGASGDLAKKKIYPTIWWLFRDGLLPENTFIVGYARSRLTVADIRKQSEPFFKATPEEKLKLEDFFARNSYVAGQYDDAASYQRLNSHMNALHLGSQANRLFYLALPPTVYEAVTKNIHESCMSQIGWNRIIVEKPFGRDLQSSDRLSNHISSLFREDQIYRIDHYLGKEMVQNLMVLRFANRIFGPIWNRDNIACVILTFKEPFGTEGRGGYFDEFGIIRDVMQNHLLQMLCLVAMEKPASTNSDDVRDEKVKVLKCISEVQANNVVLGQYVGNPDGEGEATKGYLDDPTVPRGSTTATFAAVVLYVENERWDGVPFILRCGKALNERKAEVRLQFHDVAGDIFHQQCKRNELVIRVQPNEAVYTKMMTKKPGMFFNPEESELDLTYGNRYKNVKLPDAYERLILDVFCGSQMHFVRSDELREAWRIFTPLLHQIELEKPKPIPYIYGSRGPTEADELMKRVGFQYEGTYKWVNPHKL
# Large T antigen, sequence (P03070 whole entry): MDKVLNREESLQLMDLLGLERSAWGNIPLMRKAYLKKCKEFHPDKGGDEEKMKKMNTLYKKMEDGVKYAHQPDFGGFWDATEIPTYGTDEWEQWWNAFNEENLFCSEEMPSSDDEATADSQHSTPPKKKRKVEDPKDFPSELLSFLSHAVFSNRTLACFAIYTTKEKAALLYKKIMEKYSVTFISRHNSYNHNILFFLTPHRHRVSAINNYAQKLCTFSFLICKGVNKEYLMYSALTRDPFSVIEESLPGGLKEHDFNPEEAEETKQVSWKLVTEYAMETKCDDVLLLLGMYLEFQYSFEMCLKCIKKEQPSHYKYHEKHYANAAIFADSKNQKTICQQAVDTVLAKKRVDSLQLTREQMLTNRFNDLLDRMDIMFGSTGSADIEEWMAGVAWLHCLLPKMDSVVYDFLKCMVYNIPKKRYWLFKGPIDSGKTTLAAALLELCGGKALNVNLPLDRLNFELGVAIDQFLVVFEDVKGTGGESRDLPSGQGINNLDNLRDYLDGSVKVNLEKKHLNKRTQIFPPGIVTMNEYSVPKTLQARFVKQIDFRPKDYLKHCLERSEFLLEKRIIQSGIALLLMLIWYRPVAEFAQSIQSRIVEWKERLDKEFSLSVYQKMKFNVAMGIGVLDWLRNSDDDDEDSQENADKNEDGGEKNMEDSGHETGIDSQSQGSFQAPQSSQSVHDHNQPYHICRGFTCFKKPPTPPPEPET
# Protein Rev, sequence (P04618 whole entry): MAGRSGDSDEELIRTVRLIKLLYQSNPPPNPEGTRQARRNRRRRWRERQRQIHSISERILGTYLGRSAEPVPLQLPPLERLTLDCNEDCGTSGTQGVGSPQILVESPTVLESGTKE
# DNA dC->dU-editing enzyme APOBEC-3A, sequence (P31941 whole entry): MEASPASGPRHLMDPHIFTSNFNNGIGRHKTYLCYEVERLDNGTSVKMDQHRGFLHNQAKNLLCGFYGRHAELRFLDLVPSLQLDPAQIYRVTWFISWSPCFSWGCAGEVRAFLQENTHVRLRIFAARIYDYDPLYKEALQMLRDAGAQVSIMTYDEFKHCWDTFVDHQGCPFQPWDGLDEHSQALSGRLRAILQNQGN
structure (smiles),measurement,setting,value
Fc1cccc(Cl)c1/C=N/n1c(S)nnc1-c1cccnc1,IC50,[1],> 100 µM (inactive)
same,IC50,[2],2.73 µM (active)
O=c1c2ccccc2sn1-c1cc(S(=O)(=O)N2CCOCC2)ccc1N1CCCC1,IC50,Large T antigen,11.7 µM (active)
same,IC50,[3],7.51 µM (active)
same,IC50,[4],14.3 µM (active)
same,IC50,Phosphomannomutase 2,29.8 µM (active)
same,IC50,[5],10.7 µM (inactive)
same,IC50,[6],34.5 µM (inactive)
same,IC50,[7],11 µM (active)
COc1ccc(NC(=O)Nc2cc(C)cc(C)c2)cn1,IC50,Protein Rev,11.4 µM (not active)
same,IC50,[8],7.15 µM (active)
same,EC50,[9],186 µM (active)
same,EC50,[10],27.4 µM (active)
same,IC50,[11],> 66 µM (inactive)
same,IC50,[12],21.8 µM (inactive)
CC(=O)Oc1ccc2ccccc2c1C(NC(=O)Cc1ccccc1)c1ccccc1 (stereo not drawn),IC50,[13],1.27 µM (active)
O=C(CCS(=O)(=O)c1ccc(F)cc1)Nc1nc(-c2ccccn2)cs1,CC50,[14],21.1 µM (active)
same,CC50,[15],23.6 µM (active)
same,CC50,[16],> 20 µM (active)
same,CC50,[17],12 µM (active)
same,IC50,Nonstructural protein 1,21.5 µM (active)
same,IC50,cells,6.21 µM (active)
same,AC50,[18],99.2 µM (active)
